# Literature values as cited in publication PMC12682947, “Identification of New KCNT1‐Epilepsy Drugs by In Silico, Cell, and Drosophila Modeling” (Annals of Neurology, 2025).
# Where a name gives a salt, the structure may show the parent alone.
# System: hERG potassium channels
# Conditions: read-out: IC50 for inhibition of hERG potassium channels; cited from earlier work
smiles,measurement,value
Cc1c(O)cccc1C(=O)N[C@@H](CSc1ccccc1)[C@H](O)CN1C[C@H]2CCCC[C@H]2C[C@H]1C(=O)NC(C)(C)C [nelfinavir mesylate],IC50,11.5 µM
